Experimental data taken from the supplement of paper PMC10307832.

Tests used:
Assay in all cases: relative viability (nuclei count vs DMSO), 5 days (fraction); higher = more cells survive
[1] = test system: A-427
Summary of the method: (§1)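 Cells from lung cancer lines were seeded into 1536-well plates and, one day later, dosed by pin tool. Treatments were either a single drug or a fixed dose of an anchor drug with five library-drug doses (not always all listed) in √10 steps. After 5 days, nuclei were stained in a one-step fixation (final 0.05% Triton X-100, 1% formaldehyde, 1 ug/ml Hoechst) and counted on 4× images, and relative viability is the treated-to-vehicle nuclei ratio, as the median of duplicate plates.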

[2] = test system: COR-L 105
Summary of the method: as §1

[3] = test system: EPLC-272H
Summary of the method: as §1

[4] = test system: HCC-366
Summary of the method: as §1

[5] = test system: HCC-78
Summary of the method: as §1

[6] = test system: HOP-62
Summary of the method: as §1

[7] = test system: LC-2-ad
Summary of the method: as §1

[8] = test system: LCLC-97TM1
Summary of the method: as §1

[9] = test system: LU99A
Summary of the method: as §1

[10] = test system: LXF-289
Summary of the method: as §1

[11] = test system: NCI-H1755
Summary of the method: as §1

[12] = test system: NCI-H1792
Summary of the method: as §1

[13] = test system: NCI-H1793
Summary of the method: as §1

[14] = test system: NCI-H1915
Summary of the method: as §1

[15] = test system: NCI-H1944
Summary of the method: as §1

[16] = test system: NCI-H1975
Summary of the method: as §1

[17] = test system: NCI-H2085
Summary of the method: as §1

[18] = test system: NCI-H2170
Summary of the method: as §1

[19] = test system: NCI-H358
Summary of the method: as §1

[20] = test system: NCI-H460
Summary of the method: as §1

[21] = test system: SK-LU-1
Summary of the method: as §1

[22] = test system: SW 900
Summary of the method: as §1

[23] = test system: UMC-11
Summary of the method: as §1

## NC(=O)Nc1cc(-c2cccc(F)c2)sc1C(=O)N[C@H]1CCCNC1 [AZD7762] + CC(=O)c1c(C)c2cnc(Nc3ccc(N4CCNCC4)cn3)nc2n(C2CCCC2)c1=O [Palbociclib] (partner 0.5 µM)
[1]; first compound 0.01 µM
  relative viability: 0.568
[1]; first compound 0.03162 µM
  relative viability: 0.552
[1]; first compound 0.1 µM
  relative viability: 0.595
[1]; first compound 0.3162 µM
  relative viability: 0.563
[1]; first compound 1 µM
  relative viability: 0.334
[2]; first compound 0.01 µM
  relative viability: 0.414
[2]; first compound 0.03162 µM
  relative viability: 0.415
[2]; first compound 0.1 µM
  relative viability: 0.367
[2]; first compound 0.3162 µM
  relative viability: 0.386
[2]; first compound 1 µM
  relative viability: 0.372
[3]; first compound 0.01 µM
  relative viability: 0.325
[3]; first compound 0.03162 µM
  relative viability: 0.297
[3]; first compound 0.1 µM
  relative viability: 0.351
[3]; first compound 0.3162 µM
  relative viability: 0.307
[3]; first compound 1 µM
  relative viability: 0.362
[4]; first compound 0.01 µM
  relative viability: 0.478
[4]; first compound 0.03162 µM
  relative viability: 0.387
[4]; first compound 0.1 µM
  relative viability: 0.407
[4]; first compound 0.3162 µM
  relative viability: 0.28
[4]; first compound 1 µM
  relative viability: 0.106
[5]; first compound 0.01 µM
  relative viability: 0.444
[5]; first compound 0.03162 µM
  relative viability: 0.461
[5]; first compound 0.1 µM
  relative viability: 0.444
[5]; first compound 0.3162 µM
  relative viability: 0.518
[5]; first compound 1 µM
  relative viability: 0.454
[6]; first compound 0.01 µM
  relative viability: 0.476
[6]; first compound 0.03162 µM
  relative viability: 0.394
[6]; first compound 0.1 µM
  relative viability: 0.545
[6]; first compound 0.3162 µM
  relative viability: 0.484
[6]; first compound 1 µM
  relative viability: 0.487
[7]; first compound 0.01 µM
  relative viability: 0.499
[7]; first compound 0.03162 µM
  relative viability: 0.521
[7]; first compound 0.1 µM
  relative viability: 0.463
[7]; first compound 0.3162 µM
  relative viability: 0.365
[7]; first compound 1 µM
  relative viability: 0.367
[8]; first compound 0.01 µM
  relative viability: 0.214
[8]; first compound 0.03162 µM
  relative viability: 0.221
[8]; first compound 0.1 µM
  relative viability: 0.253
[8]; first compound 0.3162 µM
  relative viability: 0.28
[8]; first compound 1 µM
  relative viability: 0.274
[9]; first compound 0.01 µM
  relative viability: 0.469
[9]; first compound 0.03162 µM
  relative viability: 0.427
[9]; first compound 0.1 µM
  relative viability: 0.438
[9]; first compound 0.3162 µM
  relative viability: 0.408
[9]; first compound 1 µM
  relative viability: 0.354
[10]; first compound 0.01 µM
  relative viability: 0.569
[10]; first compound 0.03162 µM
  relative viability: 0.689
[10]; first compound 0.1 µM
  relative viability: 0.628
[10]; first compound 0.3162 µM
  relative viability: 0.679
[10]; first compound 1 µM
  relative viability: 0.668
[11]; first compound 0.01 µM
  relative viability: 0.483
[11]; first compound 0.03162 µM
  relative viability: 0.488
[11]; first compound 0.1 µM
  relative viability: 0.466
[11]; first compound 0.3162 µM
  relative viability: 0.495
[11]; first compound 1 µM
  relative viability: 0.442
[12]; first compound 0.01 µM
  relative viability: 0.725
[12]; first compound 0.03162 µM
  relative viability: 0.705
[12]; first compound 0.1 µM
  relative viability: 0.677
[12]; first compound 0.3162 µM
  relative viability: 0.731
[12]; first compound 1 µM
  relative viability: 0.785
[13]; first compound 0.01 µM
  relative viability: 0.34
[13]; first compound 0.03162 µM
  relative viability: 0.343
[13]; first compound 0.1 µM
  relative viability: 0.373
[13]; first compound 0.3162 µM
  relative viability: 0.347
[13]; first compound 1 µM
  relative viability: 0.225
[14]; first compound 0.01 µM
  relative viability: 0.552
[14]; first compound 0.03162 µM
  relative viability: 0.608
[14]; first compound 0.1 µM
  relative viability: 0.606
[14]; first compound 0.3162 µM
  relative viability: 0.617
[14]; first compound 1 µM
  relative viability: 0.563
[15]; first compound 0.01 µM
  relative viability: 0.383
[15]; first compound 0.03162 µM
  relative viability: 0.382
[15]; first compound 0.1 µM
  relative viability: 0.409
[15]; first compound 0.3162 µM
  relative viability: 0.402
[15]; first compound 1 µM
  relative viability: 0.359
[16]; first compound 0.01 µM
  relative viability: 0.519
[16]; first compound 0.03162 µM
  relative viability: 0.549
[16]; first compound 0.1 µM
  relative viability: 0.585
[16]; first compound 0.3162 µM
  relative viability: 0.352
[16]; first compound 1 µM
  relative viability: 0.357
[17]; first compound 0.01 µM
  relative viability: 0.478
[17]; first compound 0.03162 µM
  relative viability: 0.458
[17]; first compound 0.1 µM
  relative viability: 0.494
[17]; first compound 0.3162 µM
  relative viability: 0.483
[17]; first compound 1 µM
  relative viability: 0.544
[18]; first compound 0.01 µM
  relative viability: 0.437
[18]; first compound 0.03162 µM
  relative viability: 0.397
[18]; first compound 0.1 µM
  relative viability: 0.425
[18]; first compound 0.3162 µM
  relative viability: 0.424
[18]; first compound 1 µM
  relative viability: 0.415
[19]; first compound 0.01 µM
  relative viability: 0.182
[19]; first compound 0.03162 µM
  relative viability: 0.141
[19]; first compound 0.1 µM
  relative viability: 0.111
[19]; first compound 0.3162 µM
  relative viability: 0.105
[19]; first compound 1 µM
  relative viability: 0.0964
[20]; first compound 0.01 µM
  relative viability: 0.254
[20]; first compound 0.03162 µM
  relative viability: 0.117
[20]; first compound 0.1 µM
  relative viability: 0.0606
[20]; first compound 0.3162 µM
  relative viability: 0.0344
[20]; first compound 1 µM
  relative viability: 0.0224
[21]; first compound 0.01 µM
  relative viability: 0.364
[21]; first compound 0.03162 µM
  relative viability: 0.418
[21]; first compound 0.1 µM
  relative viability: 0.365
[21]; first compound 0.3162 µM
  relative viability: 0.232
[21]; first compound 1 µM
  relative viability: 0.232
[22]; first compound 0.01 µM
  relative viability: 0.597
[22]; first compound 0.03162 µM
  relative viability: 0.688
[22]; first compound 0.1 µM
  relative viability: 0.583
[22]; first compound 0.3162 µM
  relative viability: 0.444
[22]; first compound 1 µM
  relative viability: 0.504
[23]; first compound 0.01 µM
  relative viability: 0.373
[23]; first compound 0.03162 µM
  relative viability: 0.302
[23]; first compound 0.1 µM
  relative viability: 0.34
[23]; first compound 0.3162 µM
  relative viability: 0.301
[23]; first compound 1 µM
  relative viability: 0.231
